# Results published in PubChem BioAssay (NCI).
#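 These data come from cells grown in 96-well plates and exposed to compound for 48 hours at five concentrations. TGI marks complete inhibition of growth.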
# Legend:
# Assay in all cases: inhibition of tumour cell growth, NCI panel, 48 h
# [1] = test system: MDA-MB-231 breast
# [2] = test system: OVCAR-8 ovarian
# [3] = test system: SK-MEL-28 melanoma
# [4] = test system: RXF 393 renal
# [5] = test system: T-47D breast
# [6] = test system: HCT-15 colon
# [7] = test system: K-562 leukemia
# [8] = test system: DU-145 prostate
# [9] = test system: HT29 colon
# [10] = test system: U251 CNS
# [11] = test system: HOP-62 NSCLC
# [12] = test system: SF-268 CNS
# [13] = test system: SNB-19 CNS
# [14] = test system: MOLT-4 leukemia
# [15] = test system: MCF7 breast
# [16] = test system: SR leukemia
# [17] = test system: IGROV1 ovarian
# [18] = test system: UO-31 renal
# [19] = test system: BT-549 breast
# [20] = test system: OVCAR-3 ovarian
# [21] = test system: EKVX NSCLC
# [22] = test system: HCT-116 colon
# [23] = test system: HS 578T breast
# [24] = test system: NCI/ADR-RES ovarian
# [25] = test system: ACHN renal
# [26] = test system: LOX IMVI melanoma
# [27] = test system: SK-OV-3 ovarian
# [28] = test system: MALME-3M melanoma
# [29] = test system: SF-295 CNS
# [30] = test system: M14 melanoma
# [31] = test system: HL-60(TB) leukemia
# [32] = test system: CCRF-CEM leukemia
# [33] = test system: TK-10 renal
# [34] = test system: RPMI-8226 leukemia
# [35] = test system: MDA-MB-435
# [36] = test system: 786-0 renal
# [37] = test system: OVCAR-5 ovarian
# [38] = test system: NCI-H23 lung
# [39] = test system: A549 NSCLC
# [40] = test system: OVCAR-4 ovarian
# [41] = test system: NCI-H226 lung
# [42] = test system: NCI-H522 lung
# [43] = test system: HOP-92 NSCLC
# [44] = test system: UACC-62 melanoma
# [45] = test system: CAKI-1 renal
# [46] = test system: SNB-75 CNS
# [47] = test system: UACC-257 melanoma
# [48] = test system: PC-3 prostate
# [49] = test system: COLO 205 colon
# [50] = test system: SK-MEL-2 melanoma
# [51] = test system: MDA-N
# [52] = test system: SK-MEL-5 melanoma
# [53] = test system: SN12C renal
# [54] = test system: A498 renal
# [55] = test system: HCC-2998 colon
# [56] = test system: NCI-H460 lung
# [57] = test system: KM12 colon
# [58] = test system: SW-620 colon
# [59] = test system: SF-539 CNS
smiles,measurement,setting,value
FC1(F)SC2CCCCCCCCCCC2C1(F)F (configuration not stated),TGI,[1],> 100 µM
same,TGI,[2],> 100 µM
same,TGI,[3],71 µM
same,TGI,[4],54 µM
same,TGI,[5],> 100 µM
same,TGI,[6],> 100 µM
same,TGI,[7],35.3 µM
same,TGI,[8],> 100 µM
same,TGI,[9],96.5 µM
same,TGI,[10],63.6 µM
same,TGI,[11],> 100 µM
same,TGI,[12],> 100 µM
same,TGI,[13],> 100 µM
same,TGI,[14],> 100 µM
same,TGI,[15],44.2 µM
same,TGI,[16],> 100 µM
same,TGI,[17],> 100 µM
same,TGI,[18],> 100 µM
same,TGI,[19],> 100 µM
same,TGI,[20],39.1 µM
same,TGI,[21],> 100 µM
same,TGI,[22],37.1 µM
same,TGI,[23],> 100 µM
same,TGI,[24],> 100 µM
same,TGI,[25],73.8 µM
same,TGI,[26],31.6 µM
same,TGI,[27],> 100 µM
same,TGI,[28],59.6 µM
same,TGI,[29],> 100 µM
same,TGI,[30],> 100 µM
same,TGI,[31],30.3 µM
same,TGI,[32],> 100 µM
same,TGI,[33],> 100 µM
same,TGI,[34],> 100 µM
same,TGI,[35],> 100 µM
same,TGI,[36],> 100 µM
same,TGI,[37],> 100 µM
same,TGI,[38],80.1 µM
same,TGI,[39],> 100 µM
same,TGI,[40],> 100 µM
same,TGI,[41],> 100 µM
same,TGI,[42],52.7 µM
same,TGI,[43],51.6 µM
same,TGI,[44],> 100 µM
same,TGI,[45],> 100 µM
same,TGI,[46],> 100 µM
same,TGI,[47],69.8 µM
same,TGI,[48],> 100 µM
same,TGI,[49],34.7 µM
same,TGI,[50],39.3 µM
same,TGI,[51],> 100 µM
same,TGI,[52],> 100 µM
COc1ccc(/C=C2/C(=O)C(c3ccccc3)N(c3ccccc3)C2=O)cc1OC (configuration not stated),TGI,[1],> 10 µM
same,TGI,[2],> 10 µM
same,TGI,[53],> 10 µM
same,TGI,[3],> 10 µM
same,TGI,[54],2.75 µM
same,TGI,[4],> 10 µM
same,TGI,[5],> 10 µM
same,TGI,[6],> 10 µM
same,TGI,[55],> 10 µM
same,TGI,[8],> 10 µM
same,TGI,[9],> 10 µM
same,TGI,[10],> 10 µM
same,TGI,[11],> 10 µM
same,TGI,[12],> 10 µM
same,TGI,[56],> 10 µM
same,TGI,[13],> 10 µM
same,TGI,[14],> 10 µM
same,TGI,[15],> 10 µM
same,TGI,[16],> 10 µM
same,TGI,[17],2.28 µM
same,TGI,[18],> 10 µM
same,TGI,[19],> 10 µM
same,TGI,[20],> 10 µM
same,TGI,[21],> 10 µM
same,TGI,[22],> 10 µM
same,TGI,[57],> 10 µM
same,TGI,[23],> 10 µM
same,TGI,[24],> 10 µM
same,TGI,[58],> 10 µM
same,TGI,[25],> 10 µM
same,TGI,[26],> 10 µM
same,TGI,[27],> 10 µM
same,TGI,[59],> 10 µM
same,TGI,[28],> 10 µM
same,TGI,[29],> 10 µM
same,TGI,[30],> 10 µM
same,TGI,[31],> 10 µM
same,TGI,[32],> 10 µM
same,TGI,[33],> 10 µM
same,TGI,[34],> 10 µM
same,TGI,[35],> 10 µM
same,TGI,[36],> 10 µM
same,TGI,[37],> 10 µM
same,TGI,[38],> 10 µM
same,TGI,[39],> 10 µM
same,TGI,[40],> 10 µM
same,TGI,[41],> 10 µM
same,TGI,[42],> 10 µM
same,TGI,[43],> 10 µM
same,TGI,[44],> 10 µM
same,TGI,[45],> 10 µM
same,TGI,[47],> 10 µM
same,TGI,[48],> 10 µM
same,TGI,[49],> 10 µM
same,TGI,[50],> 10 µM
same,TGI,[51],> 10 µM
same,TGI,[52],0.307 µM
CC(C)(C)OC(=O)/C=C/[C@@H](CCC(=O)/C=C/[C@H](/C=C\CCCC(=O)O)NC1(c2ccccc2)c2ccccc2-c2ccccc21)O[Si](C)(C)C(C)(C)C,TGI,[1],28.4 µM
same,TGI,[2],55 µM
same,TGI,[53],32.4 µM
same,TGI,[3],69.6 µM
same,TGI,[54],34 µM
same,TGI,[4],24.5 µM
same,TGI,[5],55.6 µM
same,TGI,[6],30.2 µM
same,TGI,[55],32.5 µM
same,TGI,[7],> 100 µM
same,TGI,[8],32.6 µM
same,TGI,[9],30.1 µM
same,TGI,[10],30.9 µM
same,TGI,[11],36.5 µM
same,TGI,[12],35.2 µM
same,TGI,[56],34.7 µM
same,TGI,[13],41.8 µM
same,TGI,[14],> 100 µM
same,TGI,[15],38.7 µM
same,TGI,[16],> 100 µM
same,TGI,[17],35.5 µM
same,TGI,[18],29.8 µM
same,TGI,[19],33 µM
same,TGI,[20],32.9 µM
same,TGI,[21],45.9 µM
same,TGI,[22],30.2 µM
same,TGI,[57],43.5 µM
same,TGI,[23],77.9 µM
same,TGI,[24],32.6 µM
same,TGI,[58],81.6 µM
same,TGI,[25],36.3 µM
same,TGI,[26],27.6 µM
same,TGI,[27],> 100 µM
same,TGI,[59],36.6 µM
same,TGI,[29],33.5 µM
same,TGI,[30],29.4 µM
same,TGI,[31],86.1 µM
same,TGI,[32],> 100 µM
same,TGI,[33],52 µM
same,TGI,[34],85.1 µM
same,TGI,[35],48.7 µM
same,TGI,[36],33.3 µM
same,TGI,[37],43.6 µM
same,TGI,[38],36.6 µM
same,TGI,[39],37.2 µM
same,TGI,[40],53.9 µM
same,TGI,[41],40.3 µM
same,TGI,[42],34.6 µM
same,TGI,[43],16 µM
same,TGI,[44],29.6 µM
same,TGI,[45],67.8 µM
same,TGI,[47],34.2 µM
same,TGI,[48],36.2 µM
same,TGI,[49],59 µM
same,TGI,[50],30.1 µM
same,TGI,[51],47.2 µM
same,TGI,[52],36.8 µM
CC(NC(=O)C1(N)CCCC1)C(=O)O (configuration not stated),TGI,[1],> 100 µM
same,TGI,[2],> 100 µM
same,TGI,[53],> 100 µM
same,TGI,[3],> 100 µM
same,TGI,[54],> 100 µM
same,TGI,[4],> 100 µM
same,TGI,[5],> 100 µM
same,TGI,[6],> 100 µM
same,TGI,[55],> 100 µM
same,TGI,[7],> 100 µM
same,TGI,[8],> 100 µM
same,TGI,[9],> 100 µM
same,TGI,[10],> 100 µM
same,TGI,[11],> 100 µM
same,TGI,[12],> 100 µM
same,TGI,[13],> 100 µM
same,TGI,[14],> 100 µM
same,TGI,[15],> 100 µM
same,TGI,[16],> 100 µM
same,TGI,[17],> 100 µM
same,TGI,[18],> 100 µM
same,TGI,[19],> 100 µM
same,TGI,[20],> 100 µM
same,TGI,[21],> 100 µM
same,TGI,[22],> 100 µM
same,TGI,[57],> 100 µM
same,TGI,[23],> 100 µM
same,TGI,[24],> 100 µM
same,TGI,[58],> 100 µM
same,TGI,[25],> 100 µM
same,TGI,[26],> 100 µM
same,TGI,[27],> 100 µM
same,TGI,[28],> 100 µM
same,TGI,[29],> 100 µM
same,TGI,[30],> 100 µM
same,TGI,[31],> 100 µM
same,TGI,[32],> 100 µM
same,TGI,[33],> 100 µM
same,TGI,[34],> 100 µM
same,TGI,[35],> 100 µM
same,TGI,[36],> 100 µM
same,TGI,[37],> 100 µM
same,TGI,[38],> 100 µM
same,TGI,[39],> 100 µM
same,TGI,[40],> 100 µM
same,TGI,[41],> 100 µM
same,TGI,[42],> 100 µM
same,TGI,[44],> 100 µM
same,TGI,[45],> 100 µM
same,TGI,[46],> 100 µM
same,TGI,[47],> 100 µM
same,TGI,[48],> 100 µM
same,TGI,[49],> 100 µM
same,TGI,[50],> 100 µM
same,TGI,[51],> 100 µM
same,TGI,[52],> 100 µM
